Results from ChEMBL document CHEMBL3046383, “Enantioselective Herbicidal Activity of Chiral α-Methylbenzylphenylureas against Cyperaceae and Echinochloa Paddy Weeds” (Biosci Biotechnol Biochem, 1998).
Calls of active or inactive are those of the source. The rule behind the calls is not given here.

What was measured:
Cyperus difformis = experiment: Herbicidal activity against Cyperus difformis assessed as phytotoxic activity ratings (0- no effect to 5-complete killing rating scale) at 100 g/a measured after 3 weeks post compound treatment under green house conditions; type: functional
Cyperus serotinus = experiment: Herbicidal activity against Cyperus serotinus assessed as phytotoxic activity ratings (0- no effect to 5-complete killing rating scale) at 3.1 to 100 g/a measured after 3 weeks post compound treatment under green house conditions; type: functional
Oryza sativa [1] = experiment: Phytotoxicity against transplanted Oryza sativa (rice) seedlings assessed as phytotoxic activity ratings (0- no effect to 5-complete killing rating scale) at 100 g/a measured after 3 weeks post compound treatment under green house conditions; type: organism-based; settings: in vivo, 504 h
[2] = system: Schoenoplectiella juncoides; experiment: Herbicidal activity against Schoenoplectiella juncoides var. Hotarui Ohwi assessed as phytotoxic activity ratings (0- no effect to 5-complete killing rating scale) at 100 g/a measured after 3 weeks post compound treatment under green house conditions; type: functional
Echinochloa oryzicola = experiment: Herbicidal activity against Echinochloa oryzicola assessed as phytotoxic activity ratings (0- no effect to 5-complete killing rating scale) at 100 g/a measured after 3 weeks post compound treatment under green house conditions; type: functional
Oryza sativa [3] = experiment: Phytotoxicity against directly seeded Oryza sativa (rice) seedlings assessed as phytotoxic activity ratings (0- no effect to 5-complete killing rating scale) at 100 g/a measured after 3 weeks post compound treatment under green house conditions; type: organism-based; settings: in vivo, 504 h

CCCCCCCc1ccc(NC(=O)N[C@H](C)c2ccccc2)cc1
Activity (Cyperus difformis): 0%
Activity (Cyperus serotinus): inactive
Activity (Oryza sativa [1]): 0%
Activity [2]: 0%
Activity (Echinochloa oryzicola): 0%
Activity (Oryza sativa [3]): 0%

C[C@H](NC(=O)Nc1ccc(C(C)(C)C)cc1)c1ccccc1
Activity (Cyperus difformis): 0%
Activity (Cyperus serotinus): inactive
Activity (Oryza sativa [1]): 0%
Activity [2]: 0%
Activity (Echinochloa oryzicola): 10%
Activity (Oryza sativa [3]): 0%

C[C@@H](NC(=O)Nc1ccc(Br)cc1)c1ccccc1
Activity (Cyperus difformis): 0%
Activity (Cyperus serotinus): inactive
Activity (Oryza sativa [1]): 0%
Activity [2]: 0%
Activity (Echinochloa oryzicola): 0%
Activity (Oryza sativa [3]): 0%

C[C@H](NC(=O)Nc1ccc(F)c(F)c1)c1ccccc1
Activity (Cyperus difformis): 0%
Activity (Cyperus serotinus): inactive
Activity (Oryza sativa [1]): 0%
Activity [2]: 0%
Activity (Echinochloa oryzicola): 0%
Activity (Oryza sativa [3]): 0%

C[C@H](NC(=O)Nc1ccc(C(F)(F)F)cc1)c1ccccc1
Activity (Cyperus difformis): 0%
Activity (Cyperus serotinus): inactive
Activity (Oryza sativa [1]): 0%
Activity [2]: 0%
Activity (Echinochloa oryzicola): 0%
Activity (Oryza sativa [3]): 0%

CCOC(=O)c1cccc(NC(=O)N[C@H](C)c2ccccc2)c1
Activity (Cyperus difformis): 0%
Activity (Cyperus serotinus): inactive
Activity (Oryza sativa [1]): 0%
Activity [2]: 0%
Activity (Echinochloa oryzicola): 0%
Activity (Oryza sativa [3]): 0%

CCCCCCCc1ccc(NC(=O)N[C@@H](C)c2ccccc2)cc1
Activity (Cyperus difformis): 0%
Activity (Cyperus serotinus): inactive
Activity (Oryza sativa [1]): 0%
Activity [2]: 0%
Activity (Echinochloa oryzicola): 0%
Activity (Oryza sativa [3]): 0%

CCOC(=O)c1ccccc1NC(=O)N[C@@H](C)c1ccccc1
Activity (Cyperus difformis): 0%
Activity (Cyperus serotinus): inactive
Activity (Oryza sativa [1]): 0%
Activity [2]: 0%
Activity (Echinochloa oryzicola): 10%
Activity (Oryza sativa [3]): 0%

COc1ccccc1NC(=O)N[C@@H](C)c1ccccc1
Activity (Cyperus difformis): 0%
Activity (Cyperus serotinus): inactive
Activity (Oryza sativa [1]): 0%
Activity [2]: 0%
Activity (Echinochloa oryzicola): 0%
Activity (Oryza sativa [3]): 0%

CC(C)c1ccc(NC(=O)N[C@H](C)c2ccccc2)cc1
Activity (Cyperus difformis): 0%
Activity (Cyperus serotinus): inactive
Activity (Oryza sativa [1]): 0%
Activity [2]: 0%
Activity (Echinochloa oryzicola): 0%
Activity (Oryza sativa [3]): 0%

CCCCc1ccc(NC(=O)N[C@H](C)c2ccccc2)cc1
Activity (Cyperus difformis): 0%
Activity (Cyperus serotinus): inactive
Activity (Oryza sativa [1]): 0%
Activity [2]: 0%
Activity (Echinochloa oryzicola): 10%
Activity (Oryza sativa [3]): 10%

C[C@@H](NC(=O)Nc1cccc(F)c1)c1ccccc1
Activity (Cyperus difformis): 10%
Activity (Cyperus serotinus): inactive
Activity (Oryza sativa [1]): 0%
Activity [2]: 0%
Activity (Echinochloa oryzicola): 0%
Activity (Oryza sativa [3]): 0%

C[C@@H](NC(=O)Nc1ccc(F)c(F)c1)c1ccccc1
Activity (Cyperus difformis): 0%
Activity (Cyperus serotinus): inactive
Activity (Oryza sativa [1]): 0%
Activity [2]: 0%
Activity (Echinochloa oryzicola): 0%
Activity (Oryza sativa [3]): 0%

CCCCCCc1ccc(NC(=O)N[C@H](C)c2ccccc2)cc1
Activity (Cyperus difformis): 0%
Activity (Cyperus serotinus): inactive
Activity (Oryza sativa [1]): 0%
Activity [2]: 0%
Activity (Echinochloa oryzicola): 0%
Activity (Oryza sativa [3]): 0%

C[C@H](NC(=O)Nc1cccc(C(F)(F)F)c1F)c1ccccc1
Activity (Cyperus difformis): 0%
Activity (Cyperus serotinus): inactive
Activity (Oryza sativa [1]): 0%
Activity [2]: 0%
Activity (Echinochloa oryzicola): 0%
Activity (Oryza sativa [3]): 0%

C[C@H](NC(=O)Nc1cc(F)cc(F)c1)c1ccccc1
Activity (Cyperus difformis): 0%
Activity (Cyperus serotinus): inactive
Activity (Oryza sativa [1]): 0%
Activity [2]: 0%
Activity (Echinochloa oryzicola): 10%

C[C@@H](NC(=O)Nc1cccc(F)c1F)c1ccccc1
Activity (Cyperus difformis): 10%
Activity (Cyperus serotinus): inactive
Activity (Oryza sativa [1]): 0%
Activity [2]: 0%
Activity (Echinochloa oryzicola): 0%
Activity (Oryza sativa [3]): 0%

C[C@@H](NC(=O)Nc1cccc(C(F)(F)F)c1F)c1ccccc1
Activity (Cyperus difformis): 0%
Activity (Cyperus serotinus): inactive
Activity (Oryza sativa [1]): 0%
Activity (Echinochloa oryzicola): 0%
Activity (Oryza sativa [3]): 0%

C[C@H](NC(=O)Nc1cccc(I)c1)c1ccccc1
Activity (Cyperus difformis): 10%
Activity (Cyperus serotinus): inactive
Activity (Oryza sativa [1]): 0%
Activity [2]: 0%
Activity (Echinochloa oryzicola): 0%
Activity (Oryza sativa [3]): 0%

C[C@H](NC(=O)Nc1ccccc1Br)c1ccccc1
Activity (Cyperus difformis): 10%
Activity (Cyperus serotinus): inactive
Activity (Oryza sativa [1]): 0%
Activity [2]: 0%
Activity (Echinochloa oryzicola): 0%
Activity (Oryza sativa [3]): 0%

CCCCCCc1ccc(NC(=O)N[C@@H](C)c2ccccc2)cc1
Activity (Cyperus difformis): 0%
Activity (Cyperus serotinus): inactive
Activity (Oryza sativa [1]): 0%
Activity [2]: 0%
Activity (Echinochloa oryzicola): 0%
Activity (Oryza sativa [3]): 0%

C[C@@H](NC(=O)Nc1ccccc1I)c1ccccc1
Activity (Cyperus difformis): 10%
Activity (Cyperus serotinus): inactive
Activity (Oryza sativa [1]): 0%
Activity (Echinochloa oryzicola): 0%
Activity (Oryza sativa [3]): 0%

C[C@H](NC(=O)Nc1cc(C(F)(F)F)cc(C(F)(F)F)c1)c1ccccc1
Activity (Cyperus difformis): 0%
Activity (Cyperus serotinus): inactive
Activity (Oryza sativa [1]): 0%
Activity [2]: 0%
Activity (Echinochloa oryzicola): 0%
Activity (Oryza sativa [3]): 0%

C[C@H](NC(=O)Nc1cc(C(F)(F)F)ccc1F)c1ccccc1
Activity (Cyperus difformis): 0%
Activity (Cyperus serotinus): inactive
Activity (Oryza sativa [1]): 0%
Activity [2]: 0%
Activity (Echinochloa oryzicola): 0%
Activity (Oryza sativa [3]): 0%

C[C@@H](NC(=O)Nc1cccc(Cl)c1)c1ccccc1
Activity (Cyperus difformis): 10%
Activity (Cyperus serotinus): inactive
Activity (Oryza sativa [1]): 0%
Activity [2]: 0%
Activity (Echinochloa oryzicola): 0%
Activity (Oryza sativa [3]): 0%

CCOC(=O)c1ccccc1NC(=O)N[C@H](C)c1ccccc1
Activity (Cyperus difformis): 0%
Activity (Cyperus serotinus): inactive
Activity (Oryza sativa [1]): 0%
Activity [2]: 0%
Activity (Echinochloa oryzicola): 0%
Activity (Oryza sativa [3]): 0%

C[C@@H](NC(=O)Nc1ccc(C(F)(F)F)cc1)c1ccccc1
Activity (Cyperus difformis): 0%
Activity (Cyperus serotinus): inactive
Activity (Oryza sativa [1]): 0%
Activity [2]: 0%
Activity (Echinochloa oryzicola): 0%
Activity (Oryza sativa [3]): 0%

C[C@H](NC(=O)Nc1cccc(F)c1)c1ccccc1
Activity (Cyperus difformis): 10%
Activity (Cyperus serotinus): inactive
Activity (Oryza sativa [1]): 0%
Activity [2]: 0%
Activity (Echinochloa oryzicola): 10%
Activity (Oryza sativa [3]): 10%

C[C@@H](NC(=O)Nc1ccc(F)cc1)c1ccccc1
Activity (Cyperus difformis): 0%
Activity (Cyperus serotinus): inactive
Activity (Oryza sativa [1]): 0%
Activity [2]: 0%
Activity (Echinochloa oryzicola): 0%
Activity (Oryza sativa [3]): 0%

C[C@@H](NC(=O)Nc1cc(C(F)(F)F)cc(C(F)(F)F)c1)c1ccccc1
Activity (Cyperus difformis): 0%
Activity (Cyperus serotinus): inactive
Activity (Oryza sativa [1]): 0%
Activity [2]: 0%
Activity (Echinochloa oryzicola): 0%
Activity (Oryza sativa [3]): 0%

C[C@H](NC(=O)Nc1ccccc1I)c1ccccc1
Activity (Cyperus difformis): 10%
Activity (Cyperus serotinus): inactive
Activity (Oryza sativa [1]): 0%
Activity [2]: 0%
Activity (Echinochloa oryzicola): 0%
Activity (Oryza sativa [3]): 0%

CCOC(=O)c1ccc(NC(=O)N[C@@H](C)c2ccccc2)cc1
Activity (Cyperus difformis): 0%
Activity (Cyperus serotinus): inactive
Activity (Oryza sativa [1]): 0%
Activity [2]: 0%
Activity (Echinochloa oryzicola): 0%
Activity (Oryza sativa [3]): 0%

C[C@@H](NC(=O)Nc1ccc(C(C)(C)C)cc1)c1ccccc1
Activity (Cyperus difformis): 0%
Activity (Cyperus serotinus): inactive
Activity (Oryza sativa [1]): 0%
Activity [2]: 0%
Activity (Echinochloa oryzicola): 10%
Activity (Oryza sativa [3]): 0%

CCc1cccc(CC)c1NC(=O)N[C@@H](C)c1ccccc1
Activity (Cyperus difformis): 0%
Activity (Cyperus serotinus): inactive
Activity (Oryza sativa [1]): 0%
Activity [2]: 0%
Activity (Echinochloa oryzicola): 0%
Activity (Oryza sativa [3]): 0%

C[C@@H](NC(=O)Nc1ccccc1Cl)c1ccccc1
Activity (Cyperus difformis): 10%
Activity (Cyperus serotinus): inactive
Activity (Oryza sativa [1]): 0%
Activity [2]: 0%
Activity (Echinochloa oryzicola): 0%
Activity (Oryza sativa [3]): 0%

CC(=O)c1cccc(NC(=O)N[C@H](C)c2ccccc2)c1
Activity (Cyperus difformis): 0%
Activity (Cyperus serotinus): inactive
Activity (Oryza sativa [1]): 0%
Activity [2]: 0%
Activity (Echinochloa oryzicola): 0%
Activity (Oryza sativa [3]): 0%

COc1ccc(NC(=O)N[C@@H](C)c2ccccc2)cc1
Activity (Cyperus difformis): 0%
Activity (Cyperus serotinus): inactive
Activity (Oryza sativa [1]): 0%
Activity [2]: 0%
Activity (Echinochloa oryzicola): 0%
Activity (Oryza sativa [3]): 0%

CCCCCc1ccc(NC(=O)N[C@@H](C)c2ccccc2)cc1
Activity (Cyperus difformis): 0%
Activity (Cyperus serotinus): inactive
Activity (Oryza sativa [1]): 0%
Activity [2]: 0%
Activity (Echinochloa oryzicola): 0%
Activity (Oryza sativa [3]): 0%

C[C@@H](NC(=O)Nc1cc(C(C)(C)C)ccc1C(C)(C)C)c1ccccc1
Activity (Cyperus difformis): 0%
Activity (Cyperus serotinus): inactive
Activity (Oryza sativa [1]): 0%
Activity [2]: 0%
Activity (Echinochloa oryzicola): 0%
Activity (Oryza sativa [3]): 0%

C[C@H](NC(=O)Nc1cc(C(C)(C)C)ccc1C(C)(C)C)c1ccccc1
Activity (Cyperus difformis): 0%
Activity (Cyperus serotinus): inactive
Activity (Oryza sativa [1]): 0%
Activity (Echinochloa oryzicola): 0%
Activity (Oryza sativa [3]): 0%

CCCc1ccc(NC(=O)N[C@@H](C)c2ccccc2)cc1
Activity (Cyperus difformis): 40%
Activity (Oryza sativa [1]): 0%
Activity [2]: 0%
Activity (Echinochloa oryzicola): 10%
Activity (Oryza sativa [3]): 0%

C[C@H](NC(=O)Nc1ccc(Br)cc1)c1ccccc1
Activity (Cyperus difformis): 0%
Activity (Cyperus serotinus): inactive
Activity (Oryza sativa [1]): 0%
Activity (Echinochloa oryzicola): 0%
Activity (Oryza sativa [3]): 0%
